The text below walks through data of patent publication US11179367B2, “Pharmaceutical compositions for treating cystic fibrosis” (Vertex Pharmaceuticals Incorporated, priority 2018, dated 2021).

Each structure is given as a SMILES string.

The target of data set [1] is T1, F508del CFTR in NIH3T3 cells (Homo sapiens, UniProt P13569, DEL508-508).
T1 construct: expressed in transfected cells
The data set can be described thus: Membrane potential optical assay (correction assay) for F508del-CFTR modulators. The format is cell-based. Conditions: NIH3T3 cells expressing F508del. An excerpt:
Membrane Potential Optical Methods for Assaying Properties of F508del-CFTR Modulators
An optical assay was employed to measure changes in membrane potential to determine the CFTR modulator properties of compounds. The assay utilized fluorescent voltage sensing dyes to measure changes in membrane potential using a fluorescent plate reader (e.g., FLIPR III, Molecular Devices, Inc.) as a readout for increase in functional F508del in NIH 3T3 cells. The driving force for the response was the creation of a chloride ion gradient in conjunction with channel activation and concurrent with compound treatment by a single liquid addition step after the cells had previously been loaded with a voltage sensing dye.
NIH3T3 mouse fibroblasts stably expressing F508del were used for optical measurements of membrane potential. The cells were maintained at 37° C. in 5% CO2 and 90% humidity in Dulbecco's modified Eagle's medium supplemented with 2 mM glutamine, 10% fetal bovine serum, 1×NEAA, β-ME, 1×pen/strep, and 25 mM HEPES in 175 cm^2 culture flasks. […] The cells were then activated and treated with Compound I. After 18-24 hours, fluorescence from the voltage sensing dye in the cells was measured to assess changes in the membrane potential as a read out for increase in functional F508del CFTR in the NIH3T3 cells.

Data set [2] concerns the target T2, F508del-CFTR in human bronchial epithelial (HBE) cells (Homo sapiens, UniProt P13569, DEL508-508).
T2 construct: endogenous in cells; host or cells: primary CF human bronchial epithelial (HBE) cells
Briefly: Ussing chamber assay, chloride current in airway epithelial (HBE) cells expressing F508del. The class given is cell-based. As for the experimental part:
Ussing chamber experiments were performed on polarized airway epithelial cells expressing F508del to further characterize the F508del modulators identified in the optical assay above. Non-CF and CF airway epithelia were isolated from bronchial tissue, cultured using methods well known in the art, and plated onto Costar® Snapwell™ filters that were precoated with NIH3T3-conditioned media. After four days the apical media was removed and the cells were grown at an air liquid interface for >14 days prior to use. […] CF-HBE cells were isolated from patients homozygous for F508del (F508del/F508del-HBE) or heterozygous for F508del with a different disease causing mutation on the other allele.
HBE cells grown on Costar® Snapwell™ cell culture inserts were mounted in an Ussing chamber (Physiologic Instruments, Inc., San Diego, Calif.), and the transepithelial resistance and short-circuit current in the presence of a basolateral to apical Cl^− gradient (ISC) were measured using a voltage-clamp system (Department of Bioengineering, University of Iowa, IA). Briefly, HBE cells were examined under voltage-clamp recording conditions (Vhold=0 mV) at 37° C. […]
A basolateral to apical membrane Cl^− concentration gradient was set up as follows. […] Chloride current was measured to assess the increase in functional CFTR in the cell membrane.

Data set [3] is described as follows: Rat pharmacokinetics, single IV and oral dose. The class given is in vivo. Conditions: male Sprague Dawley rats. As for the experimental part: Compound 1 was also administered to male Sprague Dawley rats at single nominal oral dose (PO) of 3 mg/kg as a solution in 5% NMP, 30% PEG400, 10% TPGS, 5% PVP-K30 at 5 mL/kg dose volume.
The study design, sample tracking, data run design and individual plasma sample concentrations were stored using Watson LIMS software, Version 7.4.2 (Thermo Scientific Inc, Waltham, Mass.). Plasma concentration-time profiles of Compound 1 in Sprague Dawley rats at scheduled (nominal) sampling times were analyzed by noncompartmental pharmacokinetic methods using PK function within Watson LIMS software, Version 7.4.2 (Thermo Scientific Inc, Waltham, Mass.). Key pharmacokinetic parameters such as “area under the curve” (AUC), from the time of drug administration, time zero, extrapolated to infinity, clearance (CL), and Percent of oral bioavailability (% F) were determined. The AUC values were calculated using the linear trapezoidal rule.
In Table 21 below, Compound I is shown to have advantageous rat oral exposure (AUC) and oral bioavailability.

A further data set concerns the target F508del-CFTR protein (Homo sapiens, UniProt P13569, DEL508-508). Briefly: CFTR processing and trafficking to the cell surface (Example 15). The format is cell-based.
The target of a further data set is CFTR (Homo sapiens, UniProt P13569). Conditions: disclosed in PCT Application No. PCT/US2017/065425; read-out: EC50 as CFTR modulator; cited from earlier work.
Data set [4] is described as follows: Solid form assessment of Compound I (thermodynamic stability). The format is physicochemical. The conditions noted are these: among solid forms of Compound I. An excerpt:
In some embodiments, Compound I is Form A. In some embodiments, crystalline Form A is characterized by an X-ray powder diffractogram having a signal at least one two-theta value chosen from 6.6±0.2, 7.6±0.2, 9.6±0.2, 12.4±0.2, 13.1±0.2, 15.2±0.2, 16.4±0.2, 18.2±0.2, and 18.6±0.2. In some embodiments, crystalline Form A is characterized by an X-ray powder diffractogram having a signal at at least three two-theta values chosen from 6.6±0.2, 7.6±0.2, 9.6±0.2, 12.4±0.2, 13.1±0.2, 15.2±0.2, 16.4±0.2, 18.2±0.2, and 18.6±0.2. In some embodiments, crystalline Form A is characterized by an X-ray powder diffractograph having a signal at at least three two-theta values chosen from 6.6±0.2, 9.6±0.2, 13.1±0.2, 15.2±0.2, 18.2±0.2, and 18.6±0.2. In some embodiments, crystalline Form A is characterized by an X-ray powder diffractograph having a signal at three two-theta values of 6.6±0.2, 13.1±0.2, 18.2±0.2. In some embodiments, crystalline Form A is characterized by an X-ray powder diffractograph having a signal at six two-theta values of 6.6±0.2, 9.6±0.2, 13.1±0.2, 15.2±0.2, 18.2±0.2, and 18.6±0.2. In some embodiments, Crystalline Form A is characterized by an X-ray powder diffractogram substantially similar to that in FIG. 4A. In some embodiments, Crystalline Form A is characterized by an X-ray powder diffractogram substantially similar to that in FIG. 4B.

A short description of data set [5]: Bioavailability of crystalline Form A of Compound I. The class given is in vivo.

T1 sequence (P13569 with tags, fused parts or gaps DEL508-508): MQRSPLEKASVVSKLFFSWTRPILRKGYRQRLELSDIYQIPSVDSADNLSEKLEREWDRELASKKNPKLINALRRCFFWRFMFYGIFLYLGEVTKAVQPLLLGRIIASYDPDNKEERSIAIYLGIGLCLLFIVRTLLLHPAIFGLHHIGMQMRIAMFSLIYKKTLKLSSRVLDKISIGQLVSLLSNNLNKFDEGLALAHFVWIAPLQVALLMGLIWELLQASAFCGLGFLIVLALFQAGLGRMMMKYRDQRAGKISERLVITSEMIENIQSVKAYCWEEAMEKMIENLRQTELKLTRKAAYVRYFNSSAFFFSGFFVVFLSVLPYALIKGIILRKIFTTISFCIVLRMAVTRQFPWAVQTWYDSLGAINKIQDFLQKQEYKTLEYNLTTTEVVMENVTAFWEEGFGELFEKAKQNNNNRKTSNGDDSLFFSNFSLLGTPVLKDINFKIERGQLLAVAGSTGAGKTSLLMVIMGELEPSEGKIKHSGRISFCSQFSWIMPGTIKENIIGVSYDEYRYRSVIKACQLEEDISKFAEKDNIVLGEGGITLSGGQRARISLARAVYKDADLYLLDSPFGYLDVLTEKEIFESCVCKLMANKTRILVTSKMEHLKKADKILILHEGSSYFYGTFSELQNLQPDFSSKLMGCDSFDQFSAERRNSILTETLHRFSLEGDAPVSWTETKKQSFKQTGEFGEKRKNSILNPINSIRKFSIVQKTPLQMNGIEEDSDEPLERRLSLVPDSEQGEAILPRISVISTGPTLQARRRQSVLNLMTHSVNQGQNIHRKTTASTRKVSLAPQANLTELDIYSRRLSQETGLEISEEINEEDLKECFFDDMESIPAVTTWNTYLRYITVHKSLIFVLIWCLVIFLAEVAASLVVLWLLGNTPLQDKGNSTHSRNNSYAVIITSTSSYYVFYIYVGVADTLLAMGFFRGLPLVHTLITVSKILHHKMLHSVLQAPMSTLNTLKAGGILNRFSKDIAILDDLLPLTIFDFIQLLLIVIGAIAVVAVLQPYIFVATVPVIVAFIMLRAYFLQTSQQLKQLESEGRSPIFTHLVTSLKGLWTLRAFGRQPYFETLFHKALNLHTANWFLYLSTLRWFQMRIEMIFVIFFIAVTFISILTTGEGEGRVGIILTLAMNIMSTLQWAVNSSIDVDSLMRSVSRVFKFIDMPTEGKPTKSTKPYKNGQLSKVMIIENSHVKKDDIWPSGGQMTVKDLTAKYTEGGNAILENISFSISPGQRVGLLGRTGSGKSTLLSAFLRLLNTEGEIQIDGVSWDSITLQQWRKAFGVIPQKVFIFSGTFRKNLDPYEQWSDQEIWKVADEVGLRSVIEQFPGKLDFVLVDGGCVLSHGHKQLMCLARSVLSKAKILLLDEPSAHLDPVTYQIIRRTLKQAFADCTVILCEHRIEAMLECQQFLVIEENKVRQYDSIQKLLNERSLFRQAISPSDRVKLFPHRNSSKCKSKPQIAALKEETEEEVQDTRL
T2 sequence (P13569 with tags, fused parts or gaps DEL508-508): as above
Sequence of F508del-CFTR protein (P13569 with tags, fused parts or gaps DEL508-508): as above

As to `Cc1nn(C)cc1S(=O)(=O)NC(=O)c1ccc(-n2ccc(OCC(C)(C)C(F)(F)F)n2)nc1N1C[C@@H](C)CC1(C)C` [Compound I, N-(1,3-dimethylpyrazol-4-yl)sulfonyl-6-[3-(3,3,3-trifluoro-2,2-dimethyl-propoxy)pyrazol-1-yl]-2-[(4 S)-2,2,4-trimethylpyrrolidin-1-yl]pyridine-3-carboxamide], the EC50 in data set [1] (18-24 hours treatment) is < 3 µM; in data set [2], < 2 µM; on CFTR, 0.07 µM. Also, in data set [1] (relative to Compound II, read-out: % Efficacy relative to Compound II), the Emax is ≥ 100%. The “HBE Max Eff (%)” value in data set [2] (% Efficacy) is reported as “+++ (“+++” means >100%)”. The “rat oral exposure (AUC)” value in data set [3] (PO 3 mg/kg) was “advantageous”. Besides, the oral bioavailability result in data set [3] (PO 3 mg/kg vs IV 3.0 mg/kg) is listed as “advantageous”. In data set [3] (single nominal oral dose 3 mg/kg, dose-normalised), the “Rat PO AUC/dose” value came to 9.4 ± 0.7 µg·h/mL/mg/kg. The bioavailability in data set [3] (rat, plasma, oral bioavailability, PO 3 mg/kg vs IV 3.0 mg/kg, read-out: Rat % F) amounted to 84%. Also, the clearance in data set [3] (rat, plasma, single nominal IV dose 3.0 mg/kg, read-out: Rat iv CL) amounted to 0.096 ± 0.024 L/h/kg. In addition, the AUC in data set [3] (rat, plasma, single nominal oral dose 3 mg/kg, AUC extrapolated to infinity) was 23.5 ± 1.7 µg·h/mL. Also, on F508del-CFTR protein, the “CFTR corrector activity (processing and trafficking of F508del-CFTR, enhanced chloride transport)” value is “potent, efficacious, and selective”.
Take `Cc1nn(C)cc1S(=O)(=O)NC(=O)c1ccc(-n2ccc(OCC(C)(C)C(F)(F)F)n2)nc1N1C[C@@H](C)CC1(C)C` [Crystalline Form A, N-(1,3-dimethylpyrazol-4-yl)sulfonyl-6-[3-(3,3,3-trifluoro-2,2-dimethyl-propoxy)pyrazol-1-yl]-2-[(4 S)-2,2,4-trimethylpyrrolidin-1-yl]pyridine-3-carboxamide]: the “thermodynamic stability of solid form” value in data set [4] was “most thermodynamically stable form”. For the same compound, the bioavailability result in data set [5] is on record as “good”.

The term EC50 denotes the concentration that produces a half-maximal response. Broadly, the AUC is concentration integrated over time.
